{
  "source": "patent US7252950B1",
  "about": "“Assays for detecting modulators of cytoskeletal function” (priority 1997, dated 2007)",
  "key": {"[1]": {"molecular_target": "T1, microtubule stimulated ATPase of kinesin (Drosophila melanogaster, UniProt P17210)", "T1 construct": "kinesin heavy chain fragment containing amino acids 5-351 of the wild type protein; hexahistidine (C); made in house; host or cells: bacterial cells (IPTG induced)", "T1 sequence (P17210 5-351)": "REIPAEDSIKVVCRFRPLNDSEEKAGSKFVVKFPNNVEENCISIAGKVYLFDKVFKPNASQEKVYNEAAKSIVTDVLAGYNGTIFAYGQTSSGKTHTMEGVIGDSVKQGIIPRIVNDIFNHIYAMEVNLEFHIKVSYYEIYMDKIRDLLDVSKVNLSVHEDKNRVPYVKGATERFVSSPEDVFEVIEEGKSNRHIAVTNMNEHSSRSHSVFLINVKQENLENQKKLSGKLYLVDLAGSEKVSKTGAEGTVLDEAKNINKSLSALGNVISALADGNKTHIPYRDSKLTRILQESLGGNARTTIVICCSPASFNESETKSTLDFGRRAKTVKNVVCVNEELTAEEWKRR", "experiment": "Microtubule-stimulated kinesin ATPase, steady state kinetics", "assay_type": "biochemical", "procedure": "(§1) All kinetic and binding measurements were performed on a bacterially expressed Drosophila kinesin heavy chain fragment containing amino acids 5-351 of the wild type protein and a hexahistidine tag at the C-terminus. Protein was purified from the soluble fraction of IPTG induced bacterial cells by a single round of affinity chromatography on Ni—NTA-agarose (Qiagen), concentrated by microfiltration, and frozen in small aliquots in liquid nitrogen.\n(§2) Initial rate measurements were done at room temperature using a malachite green assay (Geladopoulos et al. (1991) Anal. Biochem., 192: 112-116) modified to work in 96 well microtiter plates and scored on a plate reader at 650 nm. ATP concentration dependence and basal ATPase rate were determined by a coupled enzymatic assay with pyruvate kinase and lactate dehydrogenase monitoring changes in absorbance at 340 nm. Phosphate standards (650 μM-7 μM) were included with each reading.\nExtracts from 268 marine sponges were initially tested for their ability to disrupt normal behavior of microtubules in a gliding motility assay. This screening method allowed immediate distinction between substances that affected microtubule movement and those that caused microtubule depolymerization or breakage. Active extracts from the initial screening were then tested for inhibition of the microtubule-stimulated kinesin ATPase."}, "[2]": {"molecular_target": "T2, kinesin binding to microtubules (Drosophila melanogaster, UniProt P17210)", "T2 construct": "kinesin heavy chain fragment containing amino acids 5-351 of the wild type protein; hexahistidine (C); made in house; host or cells: bacterial cells (IPTG induced)", "T2 sequence (P17210 5-351)": "T1 sequence (P17210 5-351)", "experiment": "Kinesin-microtubule co-sedimentation assay with AMP-PNP", "settings": "co-sedimentation in the presence of AMP-PNP", "procedure": "as §1\nThis was tested by performing a kinesin-microtubule co-sedimentation assay in the presence of a nonhydrolysable ATP analog, AMP-PNP, with or without adociasulfate."}, "[3]": {"molecular_target": "TI-γ", "experiment": "ATPase activity assay, specificity panel", "assay_type": "biochemical, Thermomyces lanuginosus", "settings": "at 2 μM tubulin, read-out: Concentration causing 50% inhibition of enzymatic activity (C50)", "procedure": "(§3) One such ATPase assay is described in the examples below. In one preferred embodiment, the ATPase activity assay utilizes 0.3 M PCA (perchloric acid) and malachite green reagent (8.27 mM sodium molybdate II, 0.33 mM malachite green oxalate, and 0.8 mM Triton X-100). To perform the assay, 10 μL of reaction is quenched in 90 μl of cold 0.3 M PCA. Phosphate standards are used so data can be converted to mM inorganic phosphate released.\n(§4) When all reactions and standards have been quenched in PCA, 100 μl of malachite green reagent is added to the to relevant wells in e.g., a microtiter plate. The mixture is developed for 10-15 minutes and the plate is read at an absorbance of 650 nm. If phosphate standards were used, absorbance readings can be converted to mM Pi and plotted over time.\nTI-γ (a kinesin superfamily member from the fungus Thermomyces lanuginosus) was adsorbed to a glass coverslip and supplemented with a mixture of microtubules, 2 mM Mg-ATP, and sponge extracts in DMSO (5% final concentration). Motility was scored visually on a Zeiss Axioplan microscope sat up for DIC and fitted with an Argus 10 video processor (Hamamatsu).\nInitial rate measurements were done at room temperature using a malachite green assay (Geladopoulos et al. (1991) Anal. Biochem., 192: 112-116) modified to work in 96 well microtiter plates and scored on a plate reader at 650 nm. […]"}, "[4]": {"molecular_target": "T3, basal kinesin ATPase (Drosophila melanogaster, UniProt P17210)", "T3 construct": "kinesin heavy chain fragment containing amino acids 5-351 of the wild type protein; hexahistidine (C); made in house; host or cells: bacterial cells (IPTG induced)", "T3 sequence (P17210 5-351)": "T1 sequence (P17210 5-351)", "experiment": "Basal (non microtubule-stimulated) kinesin ATPase rate, coupled enzymatic assay", "assay_type": "biochemical", "settings": "absence of microtubules; up to 136 μM (the highest tested)", "procedure": "as §1, §2\nIn contrast, varying the ATP concentration had no effect on the overall shape of the kinetic curves. […] An additional argument against adociasulfate binding at the nucleotide pocket comes from the lack of an inhibitory effect on the basal, non microtubule-stimulated rate of the kinesin ATPases. If adociasulfate interfered with nucleotide binding, or locked the enzyme in a particular nucleotide-bound state, ATP turnover in the absence of microtubule should be decreased."}, "[5]": {"molecular_target": "Myosin II (EDTA)", "experiment": "ATPase activity assay, specificity panel (EDTA activated ATPase)", "assay_type": "biochemical", "settings": "read-out: Concentration causing 50% inhibition of enzymatic activity (C50)", "procedure": "as §3, §4\n[…]"}, "[6]": {"molecular_target": "rabbit kidney ATPase", "experiment": "ATPase activity assay, specificity panel", "assay_type": "biochemical", "settings": "highest used inhibitor concentration 136 μM, read-out: Concentration causing 50% inhibition of enzymatic activity (C50)", "procedure": "as §3, §4\n[…]"}, "[7]": {"molecular_target": "T4, kinesin (K-ADP state) (Drosophila melanogaster, UniProt P17210)", "T4 construct": "kinesin heavy chain fragment containing amino acids 5-351 of the wild type protein; hexahistidine (C); made in house; host or cells: bacterial cells (IPTG induced)", "T4 sequence (P17210 5-351)": "T1 sequence (P17210 5-351)", "experiment": "ADP release from kinesin", "assay_type": "biochemical", "settings": "varying concentrations of adociasulfate", "procedure": "as §1\nThe percent of ADP released from the enzyme was determined by the methods of Hackney (see, e.g., Hackney (1994) J. Biol. Chem., […]: 16508-16511). Briefly, 80 μM kinesin was preincubated with α-^32PATP at room temperature for 15 min and than stored on ice. 1 μl aliquots of that mixture were diluted into 100 μl of “chase mix” containing 0.5 mg/ml pyruvate kinase, 2 mM phosphoenalpyruvate, and varying concentrations of adociasulfate. […] The amount of ADP that became accessible to pyruvate kinase and was converted to ATP was determined by a thin layer chromatography on PEI-cellulose followed by phosphoimager quantitation.\nMicrotubule binding to kinesin induced 1,000-fold stimulation of the basal ATPase rate, owing primarily to accelerated ADP release. […] The adociasulfate concentration at 50% of maximum burst is much higher than the K1 determined in steady state microtubule competition assays. […]"}},
  "note": "pIC50: −log10 of the molar value.",
  "data": [
    {"molecule": "CC1(C)CCC[C@]2(C)O[C@H]3CC[C@@]4(C)[C@@H](CC[C@]5(C)[C@@H]4CC[C@]4(C)c6c(OS(=O)(=O)O)ccc(OS(=O)(=O)O)c6C[C@@H]54)[C@]3(C)CC[C@@H]12", "note": "[adociasulfate]", "values": [
      {"measurement": "Mode of inhibition", "setting": "[1]; steady state kinetic measurements, varying microtubule concentration", "value": "competitive with microtubules"},
      {"measurement": "Vmax", "setting": "[1]; varying ATP concentration, higher adociasulfate concentrations", "value": "progressively lower"},
      {"measurement": "Effect on binding of kinesin to microtubules", "setting": "[2]", "value": "abolished binding of kinesin to microtubules"},
      {"measurement": "pIC50", "setting": "[3]", "value": 5.70},
      {"measurement": "Effect on basal ATPase rate", "setting": "[4]", "value": "did not inhibit the basal ATPase rate"},
      {"measurement": "pIC50", "setting": "[5]", "value": 4.12},
      {"measurement": "pIC50", "setting": "[6]", "value": "< 3.87"},
      {"measurement": "ADP release from kinesin", "setting": "[7]", "value": "bursts of ADP release were observed"}
    ]}
  ]
}
